Test results taken from patent EP3154958B1, “PHOSPHATIDYLINOSITOL 3-KINASE INHIBITORS” (Gilead Sciences, Inc., priority 2014, dated 2015).

How the values were obtained:
Type in all cases: biochemical
[1] = molecular target: T1, PI3Kβ (Homo sapiens, UniProt P42338); assay: TR-FRET enzymatic activity assay, PI3Kβ; conditions: recombinant heterodimeric PI3Kβ 25-50 pM, 2× Km ATP, 30 minutes at 25°C
T1 construct: made in house
Method: (§1) The compounds of formula (I) were characterized for their enzymatic activity against the PI3K isoforms. The activities were measured using a time-resolved fluorescence resonance energy transfer (TR-FRET) assay.

[2] = molecular target: T2, PI3Kδ (Homo sapiens, UniProt O00329); assay: TR-FRET enzymatic activity assay, PI3Kδ; conditions: recombinant heterodimeric PI3Kδ 25-50 pM, 2× Km ATP, 30 minutes at 25°C
T2 construct: made in house
T2 sequence (O00329 whole entry): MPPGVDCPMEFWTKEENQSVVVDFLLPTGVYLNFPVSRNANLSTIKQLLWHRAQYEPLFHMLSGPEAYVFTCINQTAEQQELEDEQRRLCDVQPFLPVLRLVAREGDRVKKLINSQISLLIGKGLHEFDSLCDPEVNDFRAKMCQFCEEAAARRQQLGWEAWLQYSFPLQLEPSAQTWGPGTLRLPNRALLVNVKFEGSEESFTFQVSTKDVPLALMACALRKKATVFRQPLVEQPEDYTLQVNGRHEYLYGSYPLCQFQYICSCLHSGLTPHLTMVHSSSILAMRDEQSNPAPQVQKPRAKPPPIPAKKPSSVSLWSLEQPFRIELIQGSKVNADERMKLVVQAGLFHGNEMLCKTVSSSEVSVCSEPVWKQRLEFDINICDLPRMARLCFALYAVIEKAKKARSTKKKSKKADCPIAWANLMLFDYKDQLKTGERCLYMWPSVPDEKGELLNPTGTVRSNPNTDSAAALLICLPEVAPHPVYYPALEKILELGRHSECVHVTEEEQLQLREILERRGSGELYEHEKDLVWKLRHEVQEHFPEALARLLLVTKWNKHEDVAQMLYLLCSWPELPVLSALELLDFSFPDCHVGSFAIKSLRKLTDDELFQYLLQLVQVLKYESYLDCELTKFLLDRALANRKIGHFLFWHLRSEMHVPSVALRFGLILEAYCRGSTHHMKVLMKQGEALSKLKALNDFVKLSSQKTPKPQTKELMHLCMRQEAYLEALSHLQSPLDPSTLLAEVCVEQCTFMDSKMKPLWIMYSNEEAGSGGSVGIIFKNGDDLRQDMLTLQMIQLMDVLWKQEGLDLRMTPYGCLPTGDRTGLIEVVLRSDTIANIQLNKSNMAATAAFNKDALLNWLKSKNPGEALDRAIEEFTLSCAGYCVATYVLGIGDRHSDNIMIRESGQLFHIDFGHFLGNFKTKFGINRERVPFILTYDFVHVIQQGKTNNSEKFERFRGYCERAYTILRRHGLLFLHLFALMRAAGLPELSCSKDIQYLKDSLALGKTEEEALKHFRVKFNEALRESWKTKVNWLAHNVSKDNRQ
T2 sequence (P27986 whole entry partner): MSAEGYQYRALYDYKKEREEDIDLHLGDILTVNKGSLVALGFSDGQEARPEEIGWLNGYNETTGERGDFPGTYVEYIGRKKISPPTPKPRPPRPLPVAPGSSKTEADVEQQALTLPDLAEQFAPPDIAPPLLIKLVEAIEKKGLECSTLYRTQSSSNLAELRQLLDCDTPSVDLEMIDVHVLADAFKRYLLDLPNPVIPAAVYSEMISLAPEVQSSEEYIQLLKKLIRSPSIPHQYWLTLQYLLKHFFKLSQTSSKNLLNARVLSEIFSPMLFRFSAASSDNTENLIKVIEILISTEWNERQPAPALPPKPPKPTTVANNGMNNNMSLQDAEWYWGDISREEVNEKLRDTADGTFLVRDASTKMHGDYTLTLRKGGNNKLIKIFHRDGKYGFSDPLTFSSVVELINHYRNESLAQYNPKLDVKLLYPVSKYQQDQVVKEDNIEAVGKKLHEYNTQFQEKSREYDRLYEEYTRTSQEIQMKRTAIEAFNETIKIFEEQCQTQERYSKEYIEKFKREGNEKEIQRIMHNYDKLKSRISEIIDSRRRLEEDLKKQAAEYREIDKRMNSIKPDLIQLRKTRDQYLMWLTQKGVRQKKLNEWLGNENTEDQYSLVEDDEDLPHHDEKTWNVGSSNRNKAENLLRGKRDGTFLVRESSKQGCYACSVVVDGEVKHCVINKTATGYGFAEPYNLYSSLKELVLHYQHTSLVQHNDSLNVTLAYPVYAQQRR
Method: as §1

[3] = molecular target: T3, PI3Kγ (Homo sapiens, UniProt P48736); assay: TR-FRET enzymatic activity assay, PI3Kγ; conditions: recombinant heterodimeric PI3Kγ 2 nM, 2× Km ATP, 30 minutes at 25°C
T3 construct: made in house
T3 sequence (P48736 whole entry): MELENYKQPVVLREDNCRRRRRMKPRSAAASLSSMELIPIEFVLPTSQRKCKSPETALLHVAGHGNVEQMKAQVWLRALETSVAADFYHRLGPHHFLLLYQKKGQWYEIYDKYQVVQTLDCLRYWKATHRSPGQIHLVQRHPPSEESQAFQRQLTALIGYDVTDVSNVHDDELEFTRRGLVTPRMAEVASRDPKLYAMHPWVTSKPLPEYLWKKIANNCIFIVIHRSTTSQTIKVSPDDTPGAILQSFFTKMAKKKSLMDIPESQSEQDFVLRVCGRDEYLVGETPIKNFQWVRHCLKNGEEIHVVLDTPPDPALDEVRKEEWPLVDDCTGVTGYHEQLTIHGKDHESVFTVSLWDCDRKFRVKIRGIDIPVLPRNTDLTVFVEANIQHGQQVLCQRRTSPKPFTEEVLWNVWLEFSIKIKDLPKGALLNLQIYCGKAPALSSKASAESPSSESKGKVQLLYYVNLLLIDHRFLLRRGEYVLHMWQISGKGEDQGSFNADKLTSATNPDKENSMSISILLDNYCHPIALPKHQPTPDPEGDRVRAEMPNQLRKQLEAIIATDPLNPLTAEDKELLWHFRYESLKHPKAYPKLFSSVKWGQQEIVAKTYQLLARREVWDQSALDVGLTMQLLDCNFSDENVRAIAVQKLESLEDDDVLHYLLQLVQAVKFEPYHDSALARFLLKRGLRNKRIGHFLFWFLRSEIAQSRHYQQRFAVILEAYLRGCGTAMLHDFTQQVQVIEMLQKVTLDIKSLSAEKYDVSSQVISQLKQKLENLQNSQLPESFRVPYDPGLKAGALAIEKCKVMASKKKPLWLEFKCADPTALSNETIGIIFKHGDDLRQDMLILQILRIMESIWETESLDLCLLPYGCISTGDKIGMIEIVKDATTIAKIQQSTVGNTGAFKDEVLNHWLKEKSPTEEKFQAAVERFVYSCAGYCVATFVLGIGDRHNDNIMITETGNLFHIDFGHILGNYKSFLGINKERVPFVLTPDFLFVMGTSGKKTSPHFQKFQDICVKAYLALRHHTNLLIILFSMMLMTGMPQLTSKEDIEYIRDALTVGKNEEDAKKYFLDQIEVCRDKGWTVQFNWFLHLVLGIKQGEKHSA
T3 sequence (Q8WYR1 whole entry partner): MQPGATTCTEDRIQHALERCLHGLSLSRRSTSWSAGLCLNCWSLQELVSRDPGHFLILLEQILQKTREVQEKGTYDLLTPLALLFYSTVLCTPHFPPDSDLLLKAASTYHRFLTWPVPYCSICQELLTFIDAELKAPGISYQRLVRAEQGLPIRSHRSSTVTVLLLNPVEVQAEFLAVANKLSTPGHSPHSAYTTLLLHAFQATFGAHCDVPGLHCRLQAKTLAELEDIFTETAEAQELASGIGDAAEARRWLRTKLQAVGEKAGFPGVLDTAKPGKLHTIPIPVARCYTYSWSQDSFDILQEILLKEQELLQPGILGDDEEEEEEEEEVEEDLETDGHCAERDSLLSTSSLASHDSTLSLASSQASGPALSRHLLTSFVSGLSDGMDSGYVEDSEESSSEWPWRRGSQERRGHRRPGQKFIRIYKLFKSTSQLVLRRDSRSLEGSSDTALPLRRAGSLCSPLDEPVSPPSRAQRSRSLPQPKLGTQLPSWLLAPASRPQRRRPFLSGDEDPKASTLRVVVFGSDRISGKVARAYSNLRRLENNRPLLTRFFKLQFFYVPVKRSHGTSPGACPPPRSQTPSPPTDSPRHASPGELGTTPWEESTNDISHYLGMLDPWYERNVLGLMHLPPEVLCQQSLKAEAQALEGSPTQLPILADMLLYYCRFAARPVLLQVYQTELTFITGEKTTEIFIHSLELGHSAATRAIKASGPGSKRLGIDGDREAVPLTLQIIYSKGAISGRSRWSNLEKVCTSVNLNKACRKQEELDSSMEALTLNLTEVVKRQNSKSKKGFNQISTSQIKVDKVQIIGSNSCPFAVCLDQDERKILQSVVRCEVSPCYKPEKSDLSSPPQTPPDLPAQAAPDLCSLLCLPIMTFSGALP
Method: as §1

T1 sequence (P42338 whole entry): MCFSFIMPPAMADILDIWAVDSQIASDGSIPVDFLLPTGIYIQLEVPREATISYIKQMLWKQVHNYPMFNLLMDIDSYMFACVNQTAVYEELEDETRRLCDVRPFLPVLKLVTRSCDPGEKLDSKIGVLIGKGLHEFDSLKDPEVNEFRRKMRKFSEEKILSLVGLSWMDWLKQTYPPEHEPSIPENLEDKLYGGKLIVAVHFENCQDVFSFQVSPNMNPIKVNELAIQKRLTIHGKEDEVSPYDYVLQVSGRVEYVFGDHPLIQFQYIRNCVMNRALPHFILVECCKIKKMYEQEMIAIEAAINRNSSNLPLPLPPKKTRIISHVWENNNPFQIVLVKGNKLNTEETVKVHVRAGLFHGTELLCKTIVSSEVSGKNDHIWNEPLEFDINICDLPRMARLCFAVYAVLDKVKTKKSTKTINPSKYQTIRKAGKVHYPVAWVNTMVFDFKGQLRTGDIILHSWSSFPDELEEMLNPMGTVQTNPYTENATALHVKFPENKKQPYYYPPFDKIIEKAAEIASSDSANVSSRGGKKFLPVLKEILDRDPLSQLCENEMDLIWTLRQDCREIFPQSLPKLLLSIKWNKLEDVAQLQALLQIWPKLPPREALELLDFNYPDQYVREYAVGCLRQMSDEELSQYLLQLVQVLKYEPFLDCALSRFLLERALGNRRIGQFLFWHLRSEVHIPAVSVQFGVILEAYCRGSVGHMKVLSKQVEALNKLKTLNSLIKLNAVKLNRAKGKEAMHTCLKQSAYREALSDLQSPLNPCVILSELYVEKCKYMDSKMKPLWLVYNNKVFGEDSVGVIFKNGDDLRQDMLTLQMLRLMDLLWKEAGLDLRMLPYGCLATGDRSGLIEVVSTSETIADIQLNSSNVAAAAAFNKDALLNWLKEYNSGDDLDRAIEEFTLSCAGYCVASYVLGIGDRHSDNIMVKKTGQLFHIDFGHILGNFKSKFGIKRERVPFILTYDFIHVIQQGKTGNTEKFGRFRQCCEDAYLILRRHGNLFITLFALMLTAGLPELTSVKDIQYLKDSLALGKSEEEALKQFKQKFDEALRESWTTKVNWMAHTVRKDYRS
T1 sequence (P27986 whole entry partner): as the sequence (P27986 whole entry partner) above

| IC50 [1] | IC50 [2] | IC50 [3] | Compound |
| --- | --- | --- | --- |
| 2 nM | 0.8 nM | 860 nM | C[C@H](Nc1nc(N)nc(N)c1C#N)c1nc2cccc(Cl)c2c(=O)n1N1CCNC2(CC2)C1 [Compound 7, (S)-2,4-diamino-6-((1-(5-chloro-4-oxo-3-(4,7-diazaspiro[2.5]octan-7-yl)-3,4-dihydroquinazolin-2-yl)ethyl)amino)pyrimidine-5-carbonitrile] |
| 62 nM | 2 nM | > 10000 nM | C[C@H](Nc1nc(N)nc(N)c1C#N)c1nc2cccc(Cl)c2c(=O)n1[C@H]1CCCNCC1 [Compound 8, 2,4-diamino-6-(((S)-1-(3-((S)-azepan-4-yl)-5-chloro-4-oxo-3,4-dihydroquinazolin-2-yl)ethyl)amino)pyrimidine-5-carbonitrile] |
| 9 nM | 2 nM | > 10000 nM | C[C@H](Nc1nc(N)nc(N)c1C#N)c1nc2cccc(Cl)c2c(=O)n1[C@@H]1CCCNCC1 [Compound 9, 2,4-diamino-6-(((S)-1-(3-((R)-azepan-4-yl)-5-chloro-4-oxo-3,4-dihydroquinazolin-2-yl)ethyl)amino)pyrimidine-5-carbonitrile] |
| 660 nM | 56 nM | > 10000 nM | C[C@H](Nc1nc(N)nc(N)c1Cl)c1nc2cccc(Cl)c2c(=O)n1[C@H]1CCCNCC1 [Compound 12, 3-((S)-azepan-4-yl)-5-chloro-2-((S)-1-((2,6-diamino-5-chloropyrimidin-4-yl)amino)ethyl)quinazolin-4(3H)-one] |
| 180 nM | 33 nM | > 10000 nM | C[C@H](Nc1nc(N)nc(N)c1Cl)c1nc2cccc(Cl)c2c(=O)n1[C@@H]1CCCNCC1 [Compound 13, 3-((R)-azepan-4-yl)-5-chloro-2-((S)-1-((2,6-diamino-5-chloropyrimidin-4-yl)amino)ethyl)quinazolin-4(3H)-one] |
| 63 nM | 9 nM | > 10000 nM | C[C@H](Nc1ncnc2scnc12)c1nc2cccc(Cl)c2c(=O)n1C1CCNCC1 [Compound 18, (S)-5-chloro-3-(piperidin-4-yl)-2-(1-(thiazolo[5,4-d]pyrimidin-7-ylamino)ethyl)quinazolin-4(3H)-one] |
| 40 nM | 20 nM | > 10000 nM | C[C@H](Nc1nc(N)nc(N)c1Cl)c1nc2c(F)ccc(Cl)c2c(=O)n1N1CCNCC1 [Compound 20, (S)-5-chloro-2-(1-((2,6-diamino-5-chloropyrimidin-4-yl)amino)ethyl)-8-fluoro-3-(piperazin-1-yl)quinazolin-4(3H)-one] |
| 2 nM | 0.7 nM | 890 nM | Cc1nc(N)nc(N[C@@H](C)c2nc3c(F)ccc(Cl)c3c(=O)n2N2CCNCC2)c1C#N [Compound 21, (S)-2-amino-4-((1-(5-chloro-8-fluoro-4-oxo-3-(piperazin-1-yl)-3,4-dihydroquinazolin-2-yl)ethyl)amino)-6-methylpyrimidine-5-carbonitrile] |
| 15 nM | 5 nM | > 10000 nM | CC[C@H](Nc1nc(N)nc(N)c1C#N)c1nc2cccc(Cl)c2c(=O)n1C1CCNCC1 [Compound 22, (S)-2,4-diamino-6-((1-(5-chloro-4-oxo-3-(piperidin-4-yl)-3,4-dihydroquinazolin-2-yl)propyl)amino)pyrimidine-5-carbonitrile] |
| 3 nM | 5 nM | > 10000 nM | CC[C@H](Nc1nc(N)nc(C)c1C#N)c1nc2cccc(Cl)c2c(=O)n1C1CCNCC1 [Compound 23, (S)-2-amino-4-((1-(5-chloro-4-oxo-3-(piperidin-4-yl)-3,4-dihydroquinazolin-2-yl)propyl)amino)-6-methylpyrimidine-5-carbonitrile] |
| 2 nM | 3 nM | > 10000 nM | Cc1nc(N)nc(N[C@@H](C)c2nc3cccc(Cl)c3c(=O)n2C2CCNCC2)c1C#N [Compound 24, (S)-2-amino-4-((1-(5-chloro-4-oxo-3-(piperidin-4-yl)-3,4-dihydroquinazolin-2-yl)ethyl)amino)-6-methylpyrimidine-5-carbonitrile] |
| 100 nM | 25 nM | > 10000 nM | C[C@H](Nc1nc(N)nc(N)c1Cl)c1nc2cccc(Cl)c2c(=O)n1C1CCNCC1 [Compound 25, (S)-5-chloro-2-(1-((2,6-diamino-5-chloropyrimidin-4-yl)amino)ethyl)-3-(piperidin-4-yl)quinazolin-4(3H)-one] |
| 2 nM | 2 nM | > 10000 nM | C[C@H](Nc1nc(N)nc(N)c1C#N)c1nc2cccc(Cl)c2c(=O)n1C1CCNCC1 [Compound 26, (S)-2,4-diamino-6-((1-(5-chloro-4-oxo-3-(piperidin-4-yl)-3,4-dihydroquinazolin-2-yl)ethyl)amino)pyrimidine-5-carbonitrile] |
| 170 nM | 22 nM | 6400 nM | C[C@H](Nc1nc(N)nc(N)c1C#N)c1nc2cccc(Cl)c2c(=O)n1[C@H]1CCCNC1 [Compound 28, 2,4-diamino-6-(((S)-1-(5-chloro-4-oxo-3-((S)-piperidin-3-yl)-3,4-dihydroquinazolin-2-yl)ethyl)amino)pyrimidine-5-carbonitrile] |
| 91 nM | 31 nM | 3100 nM | C[C@H](Nc1nc(N)nc(N)c1C#N)c1nc2cccc(Cl)c2c(=O)n1C1CNC1 [Compound 29, (S)-2,4-diamino-6-((1-(3-(azetidin-3-yl)-5-chloro-4-oxo-3,4-dihydroquinazolin-2-yl)ethyl)amino)pyrimidine-5-carbonitrile] |
| 350 nM | 140 nM | > 10000 nM | C[C@H](Nc1nc(N)nc(N)c1C#N)c1nc2cccc(Cl)c2c(=O)n1[C@H]1CCNC1 [Compound 30, 2,4-diamino-6-(((S)-1-(5-chloro-4-oxo-3-((S)-pyrrolidin-3-yl)-3,4-dihydroquinazolin-2-yl)ethyl)amino)pyrimidine-5-carbonitrile] |
| 78 nM | 19 nM | > 10000 nM | C[C@H](Nc1nc(N)nc(N)c1C#N)c1nc2cccc(Cl)c2c(=O)n1[C@@H]1CCNC1 [Compound 31, 2,4-diamino-6-(((S)-1-(5-chloro-4-oxo-3-((R)-pyrrolidin-3-yl)-3,4-dihydroquinazolin-2-yl)ethyl)amino)pyrimidine-5-carbonitrile] |
| 32 nM | 150 nM | > 10000 nM | C[C@H](NC(=O)c1nc(Cl)cnc1N)c1nc2cccc(Cl)c2c(=O)n1N1CCNCC1 [Compound 32, (S)-3-amino-6-chloro-N-(1-(5-chloro-4-oxo-3-(piperazin-1-yl)-3,4-dihydroquinazolin-2-yl)ethyl)pyrazine-2-carboxamide] |
| 4 nM | 14 nM | 7400 nM | C[C@H](NC(=O)c1nc(Cl)c(N)nc1N)c1nc2cccc(Cl)c2c(=O)n1N1CCNCC1 [Compound 33, (S)-3,5-diamino-6-chloro-N-(1-(5-chloro-4-oxo-3-(piperazin-1-yl)-3,4-dihydroquinazolin-2-yl)ethyl)pyrazine-2-carboxamide] |
| 83 nM | 10 nM | > 10000 nM | C[C@H](Nc1ncnc2ccoc12)c1nc2cccc(Cl)c2c(=O)n1N1CCNCC1 [Compound 34, (S)-5-chloro-2-(1-(furo[3,2-d]pyrimidin-4-ylamino)ethyl)-3-(piperazin-1-yl)quinazolin-4(3H)-one] |
